Measured values taken from the supplement of paper PMC10307832.

Assays:
[1] = compound: Cc1ccc(C(=O)Nc2ccc(CN3CCN(C)CC3)c(C(F)(F)F)c2)cc1C#Cc1cnc2cccnn12 [Ponatinib] + CC(=O)Nc1cccc(-n2c(=O)n(C3CC3)c(=O)c3c(Nc4ccc(I)cc4F)n(C)c(=O)c(C)c32)c1 [Trametinib] (partner 0.02 µM); assay: relative viability (nuclei count vs DMSO), 5 days (fraction); higher = more cells survive
How it was run: (§1)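 Five library-drug doses in √10 steps were combined with a fixed anchor-drug dose, or a single drug was given alone, by pin tool to lung cancer cell lines in 1536-well plates the day after seeding. Nuclei were stained and counted after 5 days. Relative viability is the nuclei count in treated wells over that in vehicle wells, taken as the median of duplicate plates.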

[2] = compound: Cc1ccc(C(=O)Nc2ccc(CN3CCN(C)CC3)c(C(F)(F)F)c2)cc1C#Cc1cnc2cccnn12 [Ponatinib] + NC(=O)Nc1cc(-c2cccc(F)c2)sc1C(=O)N[C@H]1CCCNC1 [AZD7762] (partner 0.2 µM); assay: as above
How it was run: as §1

Cell Line	relative viability ([1]; first compound 0.002 µM)	relative viability ([1]; first compound 0.006325 µM)	relative viability ([1]; first compound 0.06325 µM)	relative viability ([1]; first compound 0.2 µM)	relative viability ([2]; first compound 0.002 µM)	relative viability ([2]; first compound 0.006325 µM)	relative viability ([2]; first compound 0.06325 µM)	relative viability ([2]; first compound 0.2 µM)
201T	0.705	0.733	0.762	0.693	0.557	0.546	0.38	0.371
A-427	0.79	0.732	0.719	0.531	0.713	0.73	0.593	0.582
ABC-1					0.828	0.878	0.755	0.663
BEN	1.02	0.967	0.982	0.768	0.494	0.625	0.589	0.774
CAL-12T	0.315	0.311	0.332	0.239	0.548	0.554	0.611	0.5
COR-L23	0.526	0.593	0.372	0.387				
COR-L 105	0.429	0.479	0.473	0.457				
ChaGo-K-1	0.863	0.907	0.914	0.815	0.763	0.857	0.847	0.819
EKVX	0.328	0.338	0.424	0.362	0.7	0.766	0.673	0.606
EMC-BAC-2	0.875	0.897	0.91	0.718	0.996	1.05	1.13	0.989
EPLC-272H	0.271	0.309	0.345	0.22	0.242	0.175	0.204	0.234
H3255	0.62	0.655	0.607	0.554	0.817	0.858	1.05	0.95
HARA	0.633	0.581	0.633	0.443	0.382	0.351	0.31	0.356
HCC-15	0.348	0.381	0.446	0.338	1.18	1.19	1.32	1.31
HCC-44	1	1.02	1.05	1.06	0.992	1.02	1.02	0.997
HCC-78	0.684	0.673	0.808	0.638	0.52	0.537	0.669	0.647
HCC-366	0.32	0.417	0.428	0.273	0.247	0.271	0.146	0.119
HCC-827	0.526	0.558	0.558	0.459	0.185	0.216	0.182	0.253
HOP-62	0.417	0.403	0.374	0.338	0.643	0.417	0.831	0.439
LC-2-ad	0.809	0.822	0.62	0.533	0.833	0.858	0.977	0.872
LCLC-97TM1	0.186	0.208	0.168	0.162	0.141	0.264	0.289	0.28
LCLC-103H	0.678	0.718	0.673	0.579	0.699	0.809	0.734	0.753
LK-2	0.787	0.666	0.746	0.587	0.405	0.431	0.146	0.231
LOU-NH91	0.803	0.807	0.886	0.764	0.744	0.779	0.801	0.682
LU99A	0.476	0.554	0.342	0.305	0.308	0.421	0.399	0.48

Cell Line	relative viability ([1]; first compound 0.002 µM)	relative viability ([1]; first compound 0.006325 µM)	relative viability ([1]; first compound 0.06325 µM)	relative viability ([1]; first compound 0.2 µM)	relative viability ([2]; first compound 0.002 µM)	relative viability ([2]; first compound 0.006325 µM)	relative viability ([2]; first compound 0.06325 µM)	relative viability ([2]; first compound 0.2 µM)
LXF-289	0.651	0.649	0.633	0.641	1.03	1.13	1.19	1.1
NCI-H23	0.376	0.415	0.364	0.348	0.266	0.244	0.237	0.14
NCI-H322M	0.516	0.555	0.553	0.531	0.566	0.483	0.543	0.448
NCI-H358	0.162	0.147	0.12	0.103	0.45	0.567	0.509	0.46
NCI-H441	0.389	0.435	0.485	0.382	1.18	1.19	1.35	1.14
NCI-H460	0.192	0.128	0.268	0.1	0.478	0.552	0.564	0.576
NCI-H520	0.597	0.623	0.435	0.285				
NCI-H522	0.739	0.876	0.594	0.629	0.664	0.784	0.695	0.819
NCI-H596	0.783	0.812	0.825	0.642	1.08	1.04	0.912	0.632
NCI-H647	0.399	0.5	0.458	0.296	0.294	0.381	0.482	0.335
NCI-H650	0.929	0.962	0.949	0.83	0.695	0.92	0.981	0.572
NCI-H661	0.544	0.556	0.524	0.453				
NCI-H727	0.415	0.388	0.398	0.37	0.508	0.575	0.567	0.576
NCI-H838	0.461	0.554	0.529	0.424	0.899	0.935	0.95	0.774
NCI-H1355	0.378	0.429	0.464	0.47	0.696	0.742	0.829	0.717
NCI-H1395	0.905	1.01	0.976	0.78	0.387	0.41	0.371	0.362
NCI-H1437	0.413	0.496	0.741	0.613	1.02	1.07	1.17	1.03
NCI-H1648	0.478	0.361	0.432	0.346	0.627	0.64	0.618	0.567
NCI-H1650	0.583	0.543	0.801	0.474				
NCI-H1651	0.825	0.827	0.918	0.809	0.336	0.465	0.458	0.509
NCI-H1666	0.83	0.786	0.827	0.777	0.823	0.863	0.889	0.902
NCI-H1703					0.118	0.143	0.118	0.143
NCI-H1734	0.63	0.658	0.527	0.505	0.514	0.516	0.418	0.461
NCI-H1755	0.755	0.841	0.761	0.763	0.409	0.379	0.381	0.362
NCI-H1792	0.312	0.546	0.54	0.403	0.708	0.478	0.55	0.407

Cell Line	relative viability ([1]; first compound 0.002 µM)	relative viability ([1]; first compound 0.006325 µM)	relative viability ([1]; first compound 0.06325 µM)	relative viability ([1]; first compound 0.2 µM)	relative viability ([2]; first compound 0.002 µM)	relative viability ([2]; first compound 0.006325 µM)	relative viability ([2]; first compound 0.06325 µM)	relative viability ([2]; first compound 0.2 µM)
NCI-H1793	0.395	0.511	0.344	0.347	0.406	0.466	0.282	0.178
NCI-H1915	0.303	0.321	0.288	0.24	0.553	0.697	0.591	0.651
NCI-H1944	0.426	0.465	0.49	0.409	0.454	0.489	0.543	0.664
NCI-H1975	0.367	0.445	0.469	0.294	0.599	0.706	0.726	0.615
NCI-H1993	0.539	0.506	0.64	0.572	0.65	0.86	0.773	0.689
NCI-H2009	0.284	0.253	0.189	0.165				
NCI-H2023	0.555	0.625	0.64	0.523				
NCI-H2085	0.482	0.557	0.675	0.568	0.962	0.944	0.909	0.814
NCI-H2087	0.217	0.201	0.131	0.153	1.05	1.07	1.43	1.19
NCI-H2126	0.564	0.576	0.691	0.578	0.978	0.965	1.09	0.998
NCI-H2170	0.865	0.962	0.899	0.867	0.799	0.927	0.789	0.833
NCI-H2228	0.546	0.656	0.495	0.547				
NCI-H2342	0.741	0.802	0.936	0.83	0.436	0.457	0.467	0.456
NCI-H2347	0.241	0.272	0.332	0.264	0.747	0.75	0.626	0.662
NCI-H2405	0.557	0.611	0.435	0.342	0.622	0.73	0.705	0.542
NCI-H3122	0.256	0.199	0.241	0.209	0.846	0.903	1.05	0.924
PC-3 [JPC-3]		0.769	0.88	0.699		0.901	1	0.873
PC-14	0.701	0.727	0.859	0.794	0.218	0.305	0.396	0.458
RERF-LC-KJ	0.826	0.803	1.03	0.852	0.838	0.951	1.13	0.961
SK-LU-1	0.469	0.554	0.393	0.347				
SK-MES-1	0.629	0.693	0.511	0.454				
SW 900	1	0.967	0.762	0.873	0.569	0.46	0.606	0.537
SW 1573	0.6	0.595	0.591	0.577				
